The target of one data set is T1, human recombinant HDAC6 (Homo sapiens, UniProt Q9UBN7).
T1 sequence (Q9UBN7 1-1215): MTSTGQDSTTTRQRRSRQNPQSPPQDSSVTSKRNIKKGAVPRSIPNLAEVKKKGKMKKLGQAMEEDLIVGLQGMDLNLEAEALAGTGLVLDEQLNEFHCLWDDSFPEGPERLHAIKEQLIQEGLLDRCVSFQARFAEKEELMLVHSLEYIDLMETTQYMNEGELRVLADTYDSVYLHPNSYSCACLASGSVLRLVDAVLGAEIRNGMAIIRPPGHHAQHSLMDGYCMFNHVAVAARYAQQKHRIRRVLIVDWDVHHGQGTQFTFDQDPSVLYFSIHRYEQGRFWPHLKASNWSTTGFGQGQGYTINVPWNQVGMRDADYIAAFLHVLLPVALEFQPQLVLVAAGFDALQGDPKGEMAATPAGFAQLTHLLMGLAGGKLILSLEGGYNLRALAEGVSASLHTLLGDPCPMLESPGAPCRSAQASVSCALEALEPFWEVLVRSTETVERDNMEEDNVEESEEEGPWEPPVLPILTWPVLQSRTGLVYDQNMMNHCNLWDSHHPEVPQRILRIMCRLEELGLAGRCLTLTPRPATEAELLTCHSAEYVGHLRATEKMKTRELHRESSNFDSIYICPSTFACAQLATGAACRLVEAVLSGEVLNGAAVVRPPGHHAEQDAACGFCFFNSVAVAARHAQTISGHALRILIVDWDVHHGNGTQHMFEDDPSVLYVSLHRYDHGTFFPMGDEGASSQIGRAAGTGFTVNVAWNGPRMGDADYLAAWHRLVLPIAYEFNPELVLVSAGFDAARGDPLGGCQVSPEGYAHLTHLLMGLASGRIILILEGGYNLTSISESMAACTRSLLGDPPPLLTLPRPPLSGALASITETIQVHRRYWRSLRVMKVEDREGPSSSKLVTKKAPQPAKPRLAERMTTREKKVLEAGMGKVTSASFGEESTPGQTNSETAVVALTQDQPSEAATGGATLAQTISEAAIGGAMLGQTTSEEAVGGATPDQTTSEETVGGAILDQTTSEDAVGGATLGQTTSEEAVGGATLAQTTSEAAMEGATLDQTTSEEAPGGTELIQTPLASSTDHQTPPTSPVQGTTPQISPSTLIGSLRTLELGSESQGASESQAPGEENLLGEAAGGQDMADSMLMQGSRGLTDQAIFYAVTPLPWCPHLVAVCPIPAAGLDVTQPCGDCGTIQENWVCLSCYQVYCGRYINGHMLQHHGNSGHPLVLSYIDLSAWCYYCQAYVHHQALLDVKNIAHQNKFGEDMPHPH
The data set is classed as biochemical. To be noted: for LE, HDAC6 (ligand efficiency): from IC50 in place of Kd, T = 310 K; for SF 1/6, selectivity factor for HDAC6 over HDAC1: IC50(HDAC1)/IC50(HDAC6); for HDAC6 inhibition: concentrations up to 25 μM, data not shown.

A further data set addresses human recombinant HDAC1 (Homo sapiens, UniProt Q13547). Nature of the data set: In vitro HDAC1 inhibition, fluorogenic ZMAL assay. The data set is classed as biochemical.
The test system of a further data set is hHDAC6. The note with it: cited from earlier work.
The nature of data set [1]: Metabolic stability in human liver microsomes. Type of data set: in vitro ADME. The note with it: human, liver microsomes.

Bounds are passed on as bounds.

Here are results for 26 molecules from paper PMC6519732 (Journal of medicinal chemistry, 2019).

Usually IC50 stands for the midpoint of a concentration-inhibition curve. By half-life is commonly meant the time in which the quantity being followed falls by half. Higher therefore signals slow loss.

Chain of human recombinant HDAC1 (Q13547 whole entry): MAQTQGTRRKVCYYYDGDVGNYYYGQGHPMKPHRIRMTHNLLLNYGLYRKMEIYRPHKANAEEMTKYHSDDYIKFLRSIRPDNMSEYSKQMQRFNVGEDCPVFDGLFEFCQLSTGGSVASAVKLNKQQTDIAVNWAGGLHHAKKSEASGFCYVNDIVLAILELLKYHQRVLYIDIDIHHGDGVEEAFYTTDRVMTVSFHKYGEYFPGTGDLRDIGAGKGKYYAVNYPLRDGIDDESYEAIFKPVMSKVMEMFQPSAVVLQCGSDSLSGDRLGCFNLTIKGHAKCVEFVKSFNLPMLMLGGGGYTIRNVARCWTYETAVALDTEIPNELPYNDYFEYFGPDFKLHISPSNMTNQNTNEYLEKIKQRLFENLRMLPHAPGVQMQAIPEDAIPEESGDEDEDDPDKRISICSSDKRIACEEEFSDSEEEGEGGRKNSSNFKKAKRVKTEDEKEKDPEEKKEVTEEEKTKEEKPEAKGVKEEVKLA

For the molecule `O=C(NO)c1ccc(CN2c3ccccc3Sc3ccc(C(F)(F)F)cc32)cc1` [Compound 7d, N-Hydroxy-4-{[2-(trifluoromethyl)-10H-phenothiazin-10-yl]methyl}benzamide], the “LE, HDAC6 (ligand efficiency)” value on human recombinant HDAC6 was 0.37 (kcal/mol)/non-H-Atom.

With `O=C(NO)c1ccc(CN2c3ccccc3[S+]([O-])c3ccccc32)cc1` [Compound 7e, N-Hydroxy-4-[(5-oxido-10H-phenothiazin-10-yl)methyl]benzamide], the “LE, HDAC6 (ligand efficiency)” value at human recombinant HDAC6 is 0.39 (kcal/mol)/non-H-Atom.

Turning to `O=C(NO)c1ccc(CN2c3ccncc3Sc3ccncc32)cc1` [Compound 7m, 4-[(10H-Dipyrido[3,4-b:3’,4’-e][1,4]thiazin-10-yl)methyl]-N-hydroxybenzamide], the IC50 at human recombinant HDAC1 was found to be 0.79 ± 0.14 µM. Besides, the “LE, HDAC6 (ligand efficiency)” value at human recombinant HDAC6 is given as 0.46 (kcal/mol)/non-H-Atom.

With `CCCCN(Cc1ccc(C(=O)NO)cc1)C(=O)Nc1ccccc1` [Nexturastat A], the “selectivity over HDAC1” value in the data set with hHDAC6 was ~ 600 fold.

For `O=C(NO)c1ccc(CN2c3ccccc3Sc3cc(Cl)nnc32)cc1` [Compound 7q, 4-[(3-Chloro-10H-benzo[b]pyridazino[3,4-e][1,4]thiazin-10-yl)methyl]-N-hydroxybenzamide], the IC50 at human recombinant HDAC1 was 1.08 ± 0.04 µM. Moreover, the “LE, HDAC6 (ligand efficiency)” value on human recombinant HDAC6 is 0.42 (kcal/mol)/non-H-Atom.

`CCSc1ccc2c(c1)N(Cc1ccc(C(=O)NO)cc1)c1ccccc1S2` [Compound 7h, 4-{[2-(Ethylthio)-10H-phenothiazin-10-yl]methyl}-N-hydroxybenzamide]: the “LE, HDAC6 (ligand efficiency)” value on human recombinant HDAC6 was 0.38 (kcal/mol)/non-H-Atom.

With `CON(C)C(=O)c1ccc(CN2c3ccccc3Sc3ccccc32)cc1` [Compound 23, 4-[(10H-Phenothiazin-10-yl)methyl]-N-methoxy-N-methylbenzamide], the “activity on HDAC1 (in words)” value on human recombinant HDAC1 was “completely inactive”. Besides, on human recombinant HDAC6, the “activity on HDAC6 (in words)” value was “completely inactive”.

Consider `O=C(NO)c1ccc(CCN2c3ccccc3Sc3ccccc32)cc1` [Compound 22, 4-[2-(10H-Phenothiazin-10-yl)ethyl]-N-hydroxybenzamide], for which the IC50 at human recombinant HDAC1 was 11.7 ± 2.61 µM. Besides, on human recombinant HDAC6, the “SF 1/6, selectivity factor for HDAC6 over HDAC1” value (shortened to “SF 1/6, selectivity factor”) came out at 86 and the “LE, HDAC6 (ligand efficiency)” value was 0.37 (kcal/mol)/non-H-Atom.

As for `CN1CCc2c(n(Cc3ccc(C(=O)NO)cc3)c3ccccc23)C1` [Regioisomer of Tubastatin], the “SF 1/6, selectivity factor” value in the data set with hHDAC6 (from published IC50 values) is listed as 3700.

In the case of `O=C(NO)c1ccc(CC(=O)N(CCO)c2ccccc2)cc1` [HPOB, N-hydroxy-4-(2-[(2-hydroxyethyl)(phenyl)amino]-2-oxoethyl)benzamide], the “selectivity over HDAC1” value with hHDAC6 is ~ 50 fold.

With `O=C(NO)c1ccc(CN2c3ccccc3Sc3nccnc32)cc1` [Compound 7k, 4-[(10H-Benzo[b]pyrazino[2,3-e][1,4]thiazin-10-yl)methyl]-N-hydroxybenzamide], the IC50 at human recombinant HDAC1 is 3.84 ± 0.13 µM. Moreover, on human recombinant HDAC6, the “SF 1/6, selectivity factor” value turned out to be 226 and the “LE, HDAC6 (ligand efficiency)” value is given as 0.44 (kcal/mol)/non-H-Atom.

Consider `CN1CCC2=C(C1)N(Cc1ccc(C(=O)NO)cc1)c1ccccc1S2` [Compound 14j, N-Hydroxy-4-[(2-methyl-1,2,3,4-tetrahydro-10H-benzo[b]pyrido[3,4-e][1,4]thiazin-10-yl)methyl]benzamide], for which, on human recombinant HDAC6, the “LE, HDAC6 (ligand efficiency)” value was 0.41 (kcal/mol)/non-H-Atom.

Turning to `O=C(NO)c1ccc(CN2c3ccccc3Sc3cccc(Cl)c32)cc1` [Compound 7c, 4-[(1-Chloro-10H-phenothiazin-10-yl)methyl]-N-hydroxybenzamide], the “LE, HDAC6 (ligand efficiency)” value on human recombinant HDAC6 is on record as 0.43 (kcal/mol)/non-H-Atom.

As for `O=C(CCCCCCNC(=O)c1cnc(N(c2ccccc2)c2ccccc2)nc1)NO` [Ricolinostat], the “selectivity for HDAC6 relative to class I HDACs” value in the data set with hHDAC6 (introduction, literature statement) was “at least 10 fold”.

On to `COc1ccc2c(c1)N(Cc1ccc(C(=O)NO)cc1)c1ccccc1S2` [Compound 7g, N-Hydroxy-4-[(2-methoxy-10H-phenothiazin-10-yl)methyl]benzamide], for which the “LE, HDAC6 (ligand efficiency)” value on human recombinant HDAC6 is 0.42 (kcal/mol)/non-H-Atom.

On to `O=C(NO)c1ccc(CN2c3ccccc3Sc3ccc(Cl)cc32)cc1` [Compound 7f, 4-[(2-Chloro-10H-phenothiazin-10-yl)methyl]-N-hydroxybenzamide], for which the “LE, HDAC6 (ligand efficiency)” value on human recombinant HDAC6 is reported as 0.43 (kcal/mol)/non-H-Atom.

Take `Cc1nc2c(s1)Sc1ccccc1N2Cc1ccc(C(=O)NO)cc1` [Compound 7o, N-Hydroxy-4-[(2-methyl-4H-benzo[b]thiazolo[4,5-e][1,4]thiazin-4-yl)methyl]benzamide]: on human recombinant HDAC1, the IC50 was found to be 5.05 ± 0.75 µM. Further, on human recombinant HDAC6, the “SF 1/6, selectivity factor” value turned out to be 136 and the “LE, HDAC6 (ligand efficiency)” value is on record as 0.42 (kcal/mol)/non-H-Atom.

As for `Cn1c(=O)c2c(ncn2C)n(C)c1=O` [Caffeine, reference compound], in data set [1], the half-life at 2 μM is greater than 40 min.

Take `O=C(O)c1ccc(CN2c3ccccc3Sc3ccccc32)cc1` [Compound 5a, 4-[(10H-Phenothiazin-10-yl)methyl]benzoic acid]: at human recombinant HDAC6, the “activity on HDAC6 (in words)” value was “inactive” and the HDAC6 inhibition result was “did not show noteworthy HDAC6 inhibition”.

For `O=C(O)c1ccc(CN2c3ccncc3Sc3ncccc32)cc1` [Compound 5n, 4-[(5H-Dipyrido[2,3-b:4’,3’-e][1,4]thiazin-5-yl)methyl]benzoic acid], on human recombinant HDAC6, the “activity on HDAC6 (in words)” value was “inactive” and the HDAC6 inhibition entry is “did not show noteworthy HDAC6 inhibition”.

Turning to `O=C(NO)c1ccc(CN2c3cccnc3Sc3cccnc32)cc1` [Compound 7l, 4-[(10H-Dipyrido[2,3-b:2’,3’-e][1,4]thiazin-10-yl)methyl]-N-hydroxybenzamide], the IC50 at human recombinant HDAC1 was determined as 3.39 ± 0.23 µM. In addition, on human recombinant HDAC6, the “SF 1/6, selectivity factor” value amounted to 242 and the “LE, HDAC6 (ligand efficiency)” value is 0.45 (kcal/mol)/non-H-Atom.

Consider `O=C(NO)c1ccc(N2c3ccccc3Sc3ccccc32)cc1` [Compound 18, N-Hydroxy-4-(10H-phenothiazin-10-yl)benzamide], for which, at human recombinant HDAC1, the IC50 was 5.87 ± 0.71 µM. On human recombinant HDAC6, the “SF 1/6, selectivity factor” value is recorded as 2 and the “LE, HDAC6 (ligand efficiency)” value is listed as 0.33 (kcal/mol)/non-H-Atom.

As to `O=C(NO)c1ccc(CN2N=CC=C3Sc4ccccc4N=C32)cc1` [Compound 10p, 4-[(1H-Benzo[b]pyridazino[3,4-e][1,4]thiazin-1-yl)methyl]-N-hydroxybenzamide], the IC50 on human recombinant HDAC1 was 0.75 ± 0.04 µM. In addition, the “LE, HDAC6 (ligand efficiency)” value on human recombinant HDAC6 is 0.44 (kcal/mol)/non-H-Atom.

`O=C(NO)c1ccc(CN2c3ccccc3Sc3ccnnc32)cc1` [Compound 7p, 4-[(10H-Benzo[b]pyridazino[3,4-e][1,4]thiazin-10-yl)methyl]-N-hydroxybenzamide]: on human recombinant HDAC1, the IC50 worked out at 1.06 ± 0.08 µM. Moreover, the “LE, HDAC6 (ligand efficiency)” value at human recombinant HDAC6 is listed as 0.45 (kcal/mol)/non-H-Atom.

Take `O=C(NO)c1ccc(CN2N=C(Cl)C=C3Sc4ccccc4N=C32)cc1` [Compound 10q, 4-[(3-Chloro-1H-benzo[b]pyridazino[3,4-e][1,4]thiazin-1-yl)methyl]-N-hydroxybenzamide]: the IC50 at human recombinant HDAC1 worked out at 4.58 ± 0.73 µM. On human recombinant HDAC6, the “LE, HDAC6 (ligand efficiency)” value was 0.38 (kcal/mol)/non-H-Atom.

On to `O=C(NO)c1ccc(CN2c3ccccc3Sc3ccncc32)cc1` [Compound 7j, 4-[(10H-Benzo[b]pyrido[3,4-e][1,4]thiazin-10-yl)methyl]-N-hydroxybenzamide], for which the IC50 on human recombinant HDAC1 turned out to be 1.25 ± 0.01 µM. In addition, at human recombinant HDAC6, the “SF 1/6, selectivity factor” value came out at 179 and the “LE, HDAC6 (ligand efficiency)” value is 0.46 (kcal/mol)/non-H-Atom.
